{"source": "PubChem BioAssay AID1845209", "about": "(Molecular Pharmacology Branch, DTP, NCI, 2023)", "test_system": "NCI-H211 tumor spheroids, viability percent test/control", "assay": "Anticancer human tumor NCI-H211 cell line growth inhibition;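 on all read-outs here: spheroids exposed to agents for seven days before readout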", "conditions": "spheroids with HUVEC and MSC; for IC50: curve of first compound; for viability, T/C: stronger effect = lower value", "summary_of_the_method": "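Single agents and combinations were tested on spheroids built from tumor cells plus HUVEC and hMSC, at half-log dilutions starting at or near clinical Cmax, else 10 microM; final DMSO 0.25% (v/v).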"}
{"smiles": "CC(C)n1c(=O)n(C)c2cnc3cc(F)c(-c4ccc(OCCCN5CCCCC5)nc4)cc3c21", "note": "+ Cn1nnc2c(C(N)=O)ncn2c1=O", "values": [{"measurement": "IC50", "setting": "second compound 1 µM", "value": 662, "unit": "nM"}, {"measurement": "IC50", "setting": "second compound 3.16 µM", "value": 781, "unit": "nM"}, {"measurement": "IC50", "setting": "second compound 10 µM", "value": 118, "unit": "nM"}, {"measurement": "IC50", "setting": "second compound 31.6 µM", "value": "< 31.6", "unit": "nM"}, {"measurement": "IC50", "setting": "second compound 100 µM", "value": "< 31.6", "unit": "nM"}, {"measurement": "viability, T/C", "setting": "second compound 1 µM, first compound 0.0316 µM", "value": 70.8, "unit": "%"}, {"measurement": "viability, T/C", "setting": "second compound 1 µM, first compound 0.1 µM", "value": 69.4, "unit": "%"}, {"measurement": "viability, T/C", "setting": "second compound 1 µM, first compound 0.316 µM", "value": 54, "unit": "%"}, {"measurement": "viability, T/C", "setting": "second compound 1 µM, first compound 1 µM", "value": 48.1, "unit": "%"}, {"measurement": "viability, T/C", "setting": "second compound 1 µM, first compound 3.16 µM", "value": 28.4, "unit": "%"}, {"measurement": "viability, T/C", "setting": "second compound 1 µM, first compound 10 µM", "value": 9.99, "unit": "%"}, {"measurement": "viability, T/C", "setting": "second compound 3.16 µM, first compound 0.0316 µM", "value": 66, "unit": "%"}, {"measurement": "viability, T/C", "setting": "second compound 3.16 µM, first compound 0.1 µM", "value": 66.1, "unit": "%"}, {"measurement": "viability, T/C", "setting": "second compound 3.16 µM, first compound 0.316 µM", "value": 63.8, "unit": "%"}, {"measurement": "viability, T/C", "setting": "second compound 3.16 µM, first compound 1 µM", "value": 42.6, "unit": "%"}, {"measurement": "viability, T/C", "setting": "second compound 3.16 µM, first compound 3.16 µM", "value": 30.7, "unit": "%"}, {"measurement": "viability, T/C", "setting": "second compound 3.16 µM, first compound 10 µM", "value": 8.69, "unit": "%"}, {"measurement": "viability, T/C", "setting": "second compound 10 µM, first compound 0.0316 µM", "value": 61.6, "unit": "%"}, {"measurement": "viability, T/C", "setting": "second compound 10 µM, first compound 0.1 µM", "value": 52.2, "unit": "%"}, {"measurement": "viability, T/C", "setting": "second compound 10 µM, first compound 0.316 µM", "value": 35.7, "unit": "%"}, {"measurement": "viability, T/C", "setting": "second compound 10 µM, first compound 1 µM", "value": 34.7, "unit": "%"}, {"measurement": "viability, T/C", "setting": "second compound 10 µM, first compound 3.16 µM", "value": 20.3, "unit": "%"}, {"measurement": "viability, T/C", "setting": "second compound 10 µM, first compound 10 µM", "value": 4.95, "unit": "%"}, {"measurement": "viability, T/C", "setting": "second compound 31.6 µM, first compound 0.0316 µM", "value": 19.9, "unit": "%"}, {"measurement": "viability, T/C", "setting": "second compound 31.6 µM, first compound 0.1 µM", "value": 16.5, "unit": "%"}, {"measurement": "viability, T/C", "setting": "second compound 31.6 µM, first compound 0.316 µM", "value": 10.7, "unit": "%"}, {"measurement": "viability, T/C", "setting": "second compound 31.6 µM, first compound 1 µM", "value": 8.57, "unit": "%"}, {"measurement": "viability, T/C", "setting": "second compound 31.6 µM, first compound 3.16 µM", "value": 5.7, "unit": "%"}, {"measurement": "viability, T/C", "setting": "second compound 31.6 µM, first compound 10 µM", "value": 0.75, "unit": "%"}, {"measurement": "viability, T/C", "setting": "second compound 100 µM, first compound 0.0316 µM", "value": 4.09, "unit": "%"}, {"measurement": "viability, T/C", "setting": "second compound 100 µM, first compound 0.1 µM", "value": 3.62, "unit": "%"}, {"measurement": "viability, T/C", "setting": "second compound 100 µM, first compound 0.316 µM", "value": 2.44, "unit": "%"}, {"measurement": "viability, T/C", "setting": "second compound 100 µM, first compound 1 µM", "value": 1.96, "unit": "%"}, {"measurement": "viability, T/C", "setting": "second compound 100 µM, first compound 3.16 µM", "value": 1.15, "unit": "%"}, {"measurement": "viability, T/C", "setting": "second compound 100 µM, first compound 10 µM", "value": 0.49, "unit": "%"}]}
